Assay: gradient 5% acetonitrile 3 min, to 50% in 2 min, to 85% in 15 min, held 3 min, 100 µL/min
Conditions: column: Zorbax Extend-C18 2.1 x 50 mm; eluents: water / acetonitrile, 0.1% formic acid
Method in brief: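 A Zorbax Extend-C18 column (2.1 × 50 mm, 1.8 μm) run at 100 μL/min with water and acetonitrile, both containing 0.1% formic acid, separated mixtures of ~100 pure standards. The HPLC was coupled to a quadrupole time-of-flight mass spectrometer operated in positive and negative ionization mode, with dead and dwell volumes of 40 μL and 900 μL. Each retention time was taken from a computationally picked adduct peak that was then manually inspected.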

Row | Structure (SMILES) | RP-LC retention time
1 | CCC(=O)N1CCc2cc(N3CC(C(=O)Nc4cccc(F)c4)CC3=O)ccc21 (stereo not drawn) | 763 s
2 | Cc1ccc(N(C)S(=O)(=O)c2c(C)sc(C)c2-c2cc(C(F)(F)F)on2)cc1C | 1370 s
3 | CCCNC(=O)C1CCN(c2cc(SCC(=O)Nc3cccc(CC)c3)ncn2)CC1 | 810 s
4 | COc1cc(-c2ccc(NC(=O)NC3CC3)c(OC)c2)ccc1NC(=O)NC1CC1 | 824 s
5 | Cc1cc(C)cc(NC(=O)c2cnn3c2CCCC3)c1 | 603 s
6 | O=c1ccc(-c2ccc3c(c2)OCO3)nn1Cc1nc(-c2ccc(C(F)(F)F)cc2)no1 | 1070 s
7 | CCCN1C(=O)Cc2cc(C(=O)NC3CC3)ccc21 | 652 s
8 | Cc1ccc(C)c(NC(=O)Cn2c(N)nc(C)c(C)c2=O)c1 | 631 s
9 | CC(=O)N1CCc2cc(N3CC(C(=O)NCc4cc(F)cc(F)c4)CC3=O)ccc21 (stereo not drawn) | 690 s
10 | CCN1C(=O)COc2ccc(-c3nc(NC(=O)c4cc(OC)c(OC)c(OC)c4)sc3C)cc21 | 1020 s
11 | CCOC(=O)Cc1cc(=O)c2cc(C)ccc2[nH]1 | 695 s
12 | CC(C)c1nc(-c2ccc(OC3CCN(S(=O)(=O)c4cn(C)cn4)C3)cc2)no1 (stereo not drawn) | 853 s
13 | O=C1CCCN1CCCN(CC(=O)N1CCNCC1)C(=O)c1ccc(F)c(Cl)c1 | 581 s
14 | CC(=O)Nc1ccc(C(=O)N2CCN(c3cc(-c4ccc(Cl)cc4)[nH]n3)CC2)cc1 | 708 s
15 | CCOc1ccc(S(=O)(=O)N2CCC(C(=O)NCCOC)CC2)cc1C | 783 s
16 | CS(=O)(=O)N1CCCC1C(=O)Nc1ccccc1 (stereo not drawn) | 690 s
17 | CCCN1CCN(C(=O)C2CCCN(c3nc4cccnc4s3)C2)CC1 (stereo not drawn) | 593 s
18 | Cc1cc(S(=O)(=O)N2[C@H]3CC[C@@H]2c2cnc(-c4ccccc4)nc2C3)ccc1F | 1090 s
19 | COc1ccc2[nH]cc(CCNC(=O)c3cc(Cl)ccc3OC)c2c1 | 883 s
20 | CS(=O)(=O)N1CCC(F)(c2nc(-c3ccccc3)no2)CC1 | 913 s
21 | CC1CCN(C(=O)c2ccccc2OCC2CCCN(C3CCCC3)C2)CC1 (stereo not drawn) | 696 s
22 | COCc1noc(C2CCCCN2C(=O)c2cnccn2)n1 (stereo not drawn) | 596 s
23 | COc1cc(NC(=O)N2CCN(CCn3c(C(F)(F)F)nc4cccnc43)CC2)cc(OC)c1 | 642 s
24 | O=c1[nH]cc(S(=O)(=O)N2CCc3ccccc3C2)c(=O)[nH]1 | 663 s

Row | Structure (SMILES) | RP-LC retention time
25 | CCc1ccc(C2=C(C)C(N3CCC(NC(=O)NCCCOC)CC3)=NS2(=O)=O)cc1 | 739 s
26 | CCN(CC)c1ccc(-c2noc(CN3CCC(C)CC3)n2)cn1 | 593 s
27 | Cc1ccsc1C(=O)N1CCC2(CC1)N=C(c1cccc(Br)c1)NO2 | 922 s
28 | CN1C(=O)CCc2cc(NC(=O)Cc3c(F)cccc3Cl)ccc21 | 784 s
29 | Cn1cc(-c2nc(C(=O)NC3CCCCCC3)cs2)c2cccnc21 | 1040 s
30 | Cc1noc(C)c1CN1CCN(C(=O)CSc2ccc(F)cc2)CC1 | 570 s
31 | CCN1C(SCC(=O)N2CCCC2)=NS(=O)(=O)c2ccccc21 | 684 s
32 | Cc1ccc2c(c1)N(Cc1ccc(F)cc1)N=C(C(=O)N1CCC(C)CC1)S2(=O)=O | 1060 s
33 | CCN1CCN(C(=O)C2CCCN(c3nnc4ccc(C(F)(F)F)cn34)C2)CC1 (stereo not drawn) | 567 s
34 | CCS(=O)(=O)N1CCc2nc(-c3ccc(F)cc3)ncc2C1 | 847 s
35 | COc1ccc(NC(=O)N(C)CCc2noc(COc3ccc(F)cc3)n2)cc1OC | 801 s
36 | COc1ccc(NC(=O)N2CCC(n3c(C(F)(F)F)nc4cccnc43)CC2)c(OC)c1 | 768 s
37 | CC(C)C(=O)N1CCC(Cc2noc(C3CC3)n2)C1 (stereo not drawn) | 692 s
38 | CCN1CCN(c2cc(C)c3cc(NC(=S)N4CCC(N5CCCCC5)CC4)ccc3n2)CC1 | 488 s
39 | CCCNc1cc(N2CCC(CCC(=O)NCc3cc(F)cc(F)c3)CC2)ncn1 | 704 s
40 | CCCNC(=O)C1CCN(c2ccc(SCC(=O)Nc3ccc(OC)c(Cl)c3)nn2)CC1 | 654 s
41 | O=C(CN1C(=O)C(C(=O)N2CCCC2)Sc2ccccc21)NC1CCCCCCC1 (stereo not drawn) | 1060 s
42 | COc1cccc(CNC(=O)Cn2c(=O)c3c(C(=O)N4CCCCC4)cc(C)nc3n(C)c2=O)c1 | 778 s
43 | O=C(Nc1c(-c2ccc(F)cc2)nc2ccccn12)c1ccc(Cl)cc1Cl | 739 s
44 | Cc1ccc(C)c(NC(=O)N2CCN(c3cc(-c4ccncc4)[nH]n3)CC2)c1 | 615 s
45 | CCN(CC)CCNC(=O)CN1C(=O)C2CCCCN2c2ccc(C(=O)N(C)C)cc21 (stereo not drawn) | 601 s
46 | Cc1ncccc1C(=O)N1[C@H]2CC[C@@H]1c1cnc(-c3ccc(F)cc3)nc1C2 | 705 s
47 | CCOC(=O)C1CCN(C(=O)CCC(=O)N2CCCn3nc(-c4cn(C)c5ccccc45)cc32)CC1 | 798 s

The remaining lines, values ahead:

Row | RP-LC retention time | Structure (SMILES)
48 | 817 s | O=C(NCc1cccs1)c1ccc2c(c1)CC(=O)N2Cc1ccccc1
49 | 991 s | COC(=O)c1ccc(NC(=O)C2(C)Oc3cccnc3N(C(C)C)C2=O)cc1 (stereo not drawn)
50 | 686 s | CSc1cccc(NC(=O)Cn2c(=O)cc(-c3nc(C4CC4)no3)c3ccccc32)c1
51 | 806 s | O=C(Nc1ccccc1NC(=O)c1ccc(Br)o1)c1ccsc1
52 | 664 s | Cn1cc(CN2CCN(C(=O)c3cc(-c4cccs4)[nH]n3)CC2)c2ccccc21
53 | 619 s | Cc1ccc(CNC(=O)c2ccc3c(c2)nc2n3CCCCC2)o1
54 | 832 s | O=C(Cc1csc2nc(-c3ccccc3)cn12)NCc1ccccc1Cl
55 | 785 s | O=C(NCc1cccc(Cl)c1)c1ccc(CN2CCN(C3CCCC3)C(=O)C2=O)cc1
56 | 688 s | CCOC(=O)Cc1sc(Nc2c(C)n[nH]c2C)nc1-c1ccccc1
57 | 1000 s | O=C(NCc1cccc(Br)c1)c1c(O)c2cccnc2[nH]c1=O
58 | 912 s | CC(C)N1C(=O)C(C)(C(=O)NCc2ccccc2)Oc2cccnc21 (stereo not drawn)
59 | 851 s | CCc1noc2nc(C)n(CC(=O)NCCc3ccc(C)cc3)c(=O)c12
60 | 923 s | Cc1ccc(NC(=O)N2CCC(CCNC(=O)C3(c4ccccc4)CC3)CC2)cc1
61 | 885 s | O=C(Cn1c(=O)c2cc(-c3cccs3)nn2c2ncccc21)NCc1ccc(Cl)cc1
62 | 690 s | O=C(CSc1nc(N2CCCCC2)nc2ccccc12)Nc1ccc2c(c1)OCCO2
63 | 610 s | c1ccc(CNc2cc(-n3ccnc3)ncn2)cc1
64 | 1050 s | CC(C)CCNC(=O)C1(C)CN(S(=O)(=O)c2ccccc2)CC(=O)N1CCCc1ccccc1 (stereo not drawn)
65 | 866 s | CCCN1C(=O)c2cc(C(=O)NCc3cccc(C)c3)nn2CC1(C)C(=O)NC1CCCC1 (stereo not drawn)
66 | 842 s | CCn1cc(-c2ccc(OC)cc2)cc1C(=O)N(C)C
67 | 1270 s | CCCc1noc(-c2ccnc(-n3ncc(C(=O)Nc4ccc(Cl)cc4)c3C)c2)n1
68 | 850 s | Cn1cccc1Cc1nnc(SCC(=O)Nc2ccccc2F)n1CCc1ccccc1

Row | RP-LC retention time | Structure (SMILES)
69 | 548 s | CN(C)CCN(Cc1ccco1)C(=O)Cn1nc(Cc2ccncc2)c2ccccc2c1=O
70 | 629 s | COc1ccc(CNC(=O)CN2CCc3[nH]c4c(C)cc(C)cc4c(=O)c3C2)cc1
71 | 631 s | CC(O)(CCc1ccccc1)CNC(=O)CN1C(=O)CCC1=O (stereo not drawn)
72 | 909 s | CC(C)N1CCCn2cc(S(=O)(=O)Nc3ccc(Oc4ccccc4)cc3)cc2C1=O
73 | 762 s | COc1ccc(CNC(=O)Cn2nc3c(N4CCSCC4)nccn3c2=O)cc1
74 | 712 s | COc1ccc(N(C)c2nnc(-c3ccc(NC(=O)c4ccco4)cc3)s2)cc1
75 | 978 s | CCOc1ccccc1NS(=O)(=O)c1ccc(-c2c(C)noc2C)cc1
76 | 636 s | O=C1C(c2cccnc2)N(Cc2ccc3c(c2)OCO3)C(=O)CN1c1ccccc1 (stereo not drawn)
77 | 1130 s | COc1ccc(NC(=O)Cn2nc(N3CCC(C)CC3)c3ccccc3c2=O)c(OC)c1
78 | 821 s | COC(=O)c1cc(OCC(=O)Nc2ccc3c(c2)OCO3)c2cc(C)ccc2n1
79 | 599 s | Cn1c(=O)c2cc(C(=O)NCc3cccnc3)nn2c2ccccc21
80 | 754 s | CCOC(=O)c1c(C)[nH]c(C)c1S(=O)(=O)N1CCC(C(=O)NCc2ccccc2)CC1
81 | 625 s | O=C(CN1c2ccc(F)cc2-c2ccccc2S1(=O)=O)NCCCN1CCOCC1
82 | 671 s | Nc1cc(C2CCN(C(=O)NCc3ccc(F)cc3)CC2)no1
83 | 732 s | COc1ccccc1C(=O)N1CCC2(CC1)NC(=O)c1cc(C)ccc1N2C
84 | 808 s | O=C(Cn1c2ccccc2c2ncn(Cc3nc(C4CC4)no3)c(=O)c21)Nc1ccc2c(c1)OCCO2
85 | 657 s | CC1(C(=O)NC2CCCC2)Cn2c(ccc2-c2ccco2)C(=O)N1Cc1cccnc1 (stereo not drawn)
86 | 718 s | CC(C)C(NC(=O)CCc1ccccc1)C(=O)Nc1nc2ccccc2[nH]1 (stereo not drawn)
87 | 674 s | O=C(NCc1ccc(F)cc1)Nc1cccc(-c2ccc(N3CCOCC3)nn2)c1
88 | 698 s | CC(C)NC(=O)c1ccc2c(c1)N(C)C(=O)CS2

— the METLIN SMRT retention time set (Domingo-Almenara et al. 2019)
